The assay concerns the target T1, HSV-1 ribonucleotide reductase (Human herpesvirus 1, UniProt P08543).
T1 construct: HSV-1 ribonucleotide reductase (partially purified) was obtained from quiescent BHK-21/C13 cells infected with strain F HSV-1 virus; endogenous in cells; host or cells: quiescent BHK-21/C13 (hamster) cells infected with HSV-1 strain F; partially purified enzyme preparation
As to the kind of experiment: Inhibition of Herpes Simplex Virus (HSV, Type 1) Ribonucleotide Reductase. It is filed as biochemical, herpes simplex virus type 1 (strain F). Conditions: concentration producing 50% of the maximal inhibition of enzyme activity; partially purified enzyme; mean of four assays. An excerpt: Inhibition of Herpes Simplex Virus (HSV, Type 1) Ribonucleotide Reductase
HSV-1 ribonucleotide reductase (partially purified) was obtained from quiescent BHK-21/C13 cells infected with strain F HSV-1 virus at 10 plaque forming units/cell as described by E. A. Cohen et al., J. Gen. Virol., 66, 733 (1985).
b) Assay and Results for Exemplified Peptides
By following the procedure described by P. Gaudreau et al., J. Biol, Chem., 262, 12413 (1987), the assay results listed in the following table were obtained. The assay result for each peptide is expressed as the concentration of the peptide producing 50% of the maximal inhibition (IC50) of enzyme activity. The number of units of the enzyme preparation used in each assay was constant, based on the specific activity of the enzyme preparation. The results are relative to the activity obtained in control experiments without peptide and represent the mean of four assays that varied less than 10% with each other.

Structures are written as SMILES. Where a SMILES comes first, the peptide text is derived from it. The star is where a group is joined. Benzoyl(2-Ph) = O=C(c1ccccc1-c1ccccc1)*; Pyrrolidide = C1CCN(*)C1

T1 sequence (P08543 whole entry): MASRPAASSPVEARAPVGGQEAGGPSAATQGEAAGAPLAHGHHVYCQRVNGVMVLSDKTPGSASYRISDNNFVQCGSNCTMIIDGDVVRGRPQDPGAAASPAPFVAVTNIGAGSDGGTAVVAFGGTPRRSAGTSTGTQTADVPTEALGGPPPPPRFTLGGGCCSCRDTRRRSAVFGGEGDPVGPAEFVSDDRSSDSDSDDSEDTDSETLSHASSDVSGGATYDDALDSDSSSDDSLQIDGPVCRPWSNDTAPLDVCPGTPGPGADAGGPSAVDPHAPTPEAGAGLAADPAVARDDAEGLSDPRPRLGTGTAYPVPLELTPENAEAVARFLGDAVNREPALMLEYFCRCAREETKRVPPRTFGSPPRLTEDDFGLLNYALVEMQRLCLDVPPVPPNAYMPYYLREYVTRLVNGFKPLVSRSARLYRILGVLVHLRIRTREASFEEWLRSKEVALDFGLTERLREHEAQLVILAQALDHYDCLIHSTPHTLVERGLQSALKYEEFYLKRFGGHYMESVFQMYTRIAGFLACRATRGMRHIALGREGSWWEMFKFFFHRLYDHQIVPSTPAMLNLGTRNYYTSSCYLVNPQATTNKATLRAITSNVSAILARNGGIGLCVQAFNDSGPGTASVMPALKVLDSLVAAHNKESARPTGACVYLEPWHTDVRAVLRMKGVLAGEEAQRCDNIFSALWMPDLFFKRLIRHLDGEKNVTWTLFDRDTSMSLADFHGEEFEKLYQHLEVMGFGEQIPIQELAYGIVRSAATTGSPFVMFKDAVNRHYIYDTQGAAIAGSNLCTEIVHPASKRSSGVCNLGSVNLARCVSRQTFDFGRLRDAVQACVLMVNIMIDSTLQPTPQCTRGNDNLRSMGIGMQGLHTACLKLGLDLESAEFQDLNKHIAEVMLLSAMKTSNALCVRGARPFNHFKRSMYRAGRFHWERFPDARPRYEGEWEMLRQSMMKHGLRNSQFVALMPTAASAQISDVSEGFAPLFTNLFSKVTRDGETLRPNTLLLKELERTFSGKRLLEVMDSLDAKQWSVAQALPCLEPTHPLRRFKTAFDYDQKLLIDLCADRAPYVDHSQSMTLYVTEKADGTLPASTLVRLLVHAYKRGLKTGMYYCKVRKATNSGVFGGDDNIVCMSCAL

In the case of `CC[C@H](C)[C@H](NC(=O)c1ccccc1-c1ccccc1)C(=O)N[C@@H](CC(=O)N1CCCC1)C(=O)N[C@@H](CC(=O)O)C(=O)N[C@@H](CC(C)C)C(=O)O` [2-Biphenylylcarbonyl-Ile-Asp(pyrrolidino)-Asp-Leu-OH] ({Benzoyl(2-Ph)}-ID(Pyrrolidide)DL-OH), the IC50 – broadly, the concentration that gives 50% inhibition – came out at 3.6 µM.
